Results published in patent US11761966B2, “Nourin gene-based RNA molecular network: novel early diagnostic and prognostic biomarkers for coronary artery disease, unstable angina, STEMI/NSTEMI and heart failure” (Nour Heart, Inc., priority 2018, dated 2023).
Entries after “also recorded” stand apart in the source; their conditions may differ.

How the values were obtained:
Yorkshire pigs = experiment: Aortic cross-clamping for 30 minutes in Yorkshire pigs (paraplegia); type: in vivo, pig; details: 30 minutes aortic cross-clamping, 4 days survival
From the text: The relationship between hypoxia and AD could open the avenue for effective preservation and pharmacological treatments of this neurodegenerative disease by using new therapeutic drugs like the novel bioenergetic drug, CCrP. CCrP provides protection of heart muscle against ischemic injury in CAD, UA, AMI, HF and cardiac surgical patients and thus save ischemic muscles from progressing to necrosis and heart failure, and will be protective against ischemic injury in stroke and AD. […] Since paraplegia following surgery of the descending thoracic aorta is a serious complication in adult and pediatric surgery, we tested the neuroprotective effect of Cyclocreatine in Yorkshire pigs which underwent 30 minutes of aortic cross-clamping then left to survive for 4 days. […] As indicated in Example 17, similar to heart tissue (Nourin-1), Nourin protein was quickly released within 5 minutes by brain (Nourin-2) and spinal cord (Nourin-3) in response to ischemia. Because of the great similarities between heart and brain and that they are both require high demand of ATP, CCrP will be as effective in preventing ischemic injury and restoring neurologic function in stroke and AD, similar to HF.

[1] = system: intact AMI dog model of LAD occlusion; experiment: Intact AMI dog model of LAD occlusion for 1 hour followed by reperfusion for 2 hours; type: in vivo; details: for myocardial cell injury (histology): vs control (saline) group
Protocol: During ischemia, myocardial ATP levels decrease by 65% at 15 minutes and by 90% at 40 minutes, thus contractile performance in vivo decreases precipitously and ceases when only 20% of ATP and 75% of creatine phosphate are depleted. […] ATP synthesis continued during ischemia and its depletion was delayed resulting in over 85% preservation of pre-ischemic ATP level with a loss of only 15%, and 97% preservation of the CrP (loss of 3%) during ischemia. This significant preservation is crucial since ATP depletion of more than 20% ceases contractility. Control saline-treated hearts maintained only 66% of the ATP, with a loss of 34%, resulting in loss of reperfusion cardiac contractility. […] On the other hand, contractile function of control saline dogs was ceased completely after LAD occlusion and never recovered during reperfusion.

[2] = system: intact canine model of cold cardioplegic arrest; experiment: Intact canine model of cold cardioplegic arrest and aortic cross-clamping (bypass); type: in vivo, dog
Protocol: Dogs were injected intravenously with saline or CCr (500 mg/kg) for 1 hour before initiating the experiment.
Atrial fibrillation (AF) induces cardiac structural remodeling and there is a need to develop more mechanism-directed AF therapies that use the mitochondria as a novel potential therapeutic target in AF.

[3] = system: non-heartbeating dog model of heart transplantation; experiment: Non-heartbeating dog model of heart transplantation (warm ischemic arrest, ex vivo perfusion); type: in vivo
Protocol: Dog hearts underwent 1 hour of global warm ischemic arrest then hearts were explanted and perfused ex vivo for an additional 4 hours with a cold lactated ringers solution containing Cyclocreatine, while control hearts received cold lactated ringers solution alone. […] Similarly, the myocardium of the CCr dog maintained a tissue pH of 7.04±0.1 during the warm ischemia period of 1 hour and throughout the ex vivo perfusion interval, which was close to its baseline level of 7.11. On the other hand, tissue pH in control hearts fell to a nadir of 6.00±0.25 during the induction of warm ischemia and never returned back to baseline levels during the ex vivo preservation period.

[4] = Crossing of the blood-brain barrier

## NC1=NCCN1CC(=O)O [Cyclocreatine]
Yorkshire pigs
  ability to stand and walk: Majority of Cyclocreatine-treated animals were able to stand and walk
[1]; CCr 60 minutes before LAD occlusion for 1 hour, saline 66%
  preservation of pre-ischemic ATP level: over 85%
[1]; CCr 60 minutes before LAD occlusion, saline 34%
  loss of ATP: 15%
[1]; at the end of 2 hours reperfusion
  neutrophil accumulation into the myocardium: reduces neutrophil accumulation
[1]; during ischemia
  loss of CrP: 3%
  preservation of the CrP: 97%
[1]; during the 2 hour reperfusion
  circulating Nourin protein in plasma: inhibiting the levels of circulating Nourin protein
[1]; immediately at reperfusion and for an additional 2 hours
  contractile function restored: over 80%
[1]
  myocardial cell injury (histology): significantly reduced myocardial cell injury
[1]; listed as CCr
  myocardial cell injury (histology): markedly less myocardial cell injury
[2]; CCr 500 mg/kg IV, throughout 4 hours of reperfusion, control 60%
  post-bypass cardiac output, of the baseline function: over 90%
[2]; all control dogs required defibrillation, listed as CCr
  resumption of contractility during reperfusion: without arrhythmias; also recorded: without the need for defibrillation
[3]; 1 hour warm ischemia and ex vivo perfusion, baseline 7.11, control nadir 6.00±0.25
  myocardial tissue pH: 7.04±0.1
[3]; after exsanguination, control average 2 minutes
  time to stop beating and develop asystole: 9 min
[3]; compared to control
  intracellular edema (diffusion weighted MRI): Reduced intracellular edema
  myocardial tissue lactic acidosis (spectroscopic MRI): Reduced myocardial tissue lactic acidosis
[3]; compared to controls
  cell injury marker Malondialdehyde: Reduced level
  myocardial ATP content: Three-fold increase
[3]; control dogs 3.86-fold increase over baseline
  reduction of Caspase enzyme activities, of baseline: 25%
[4]
  crossing of the blood-brain barrier: crosses the blood-brain barrier; also recorded: crosses the blood brain barrier
